# From US9907765B2, “Treatment of connective tissue diseases of the skin” (Cipher Pharmaceuticals, Inc., priority 2005, dated 2018)
# Tests used:
# [1] = test system: patients suffering from discoid Lupus Erythematosus; experiment: Topical treatment of cutaneous manifestations in patients with discoid Lupus Erythematosus; assay type: in vivo, human; details: patient with Discoid Lupus Erythematosus, after 3 weeks treatment
# Text: (§1) Examples 2 to 5 concern the treatment of cutaneous manifestation in patients suffering from discoid Lupus Erythematosus or subacute Lupus Erythematosus with the topical composition of Example 1 under the control of a medical doctor of Bispebjerg Hospital, Denmark. The composition was applied to affected areas once or twice per day.
# A person had been suffering from discoid Lupus Erythematosus for 18 years. Their arms were somewhat affected and the fingers were severely affected with acrocyanosis. During the years, the person had regularly been treated with strong topical steroids, but with limited effect.
# During an aggravation of the disease, which especially affected the fingers, the person initiated a treatment with the emulsion according to example 1 on the fingers.
# A person had been suffering from discoid Lupus Erythematosus for 6 years. The symptoms started on the chin, but had spread to most of the face.
# During an aggravation of the symptoms, the subject initiated a twice daily treatment with the emulsion according to example 1.
# A person had been suffering from discoid Lupus Erythematosus for 32 years. The disease was very severe with a strong affection of the arms and the back and with elements spread to other parts of the body. The person had been treated with ercoquin and strong topical corticosteroids, but with limited effect. […]
# [2] = test system: patients suffering from subacute Lupus Erythematosus; experiment: Topical treatment of cutaneous manifestations in patients with subacute Lupus Erythematosus; assay type: in vivo, human; details: patient with Sub-acute Cutaneous Lupus Erythematosus, after 8 weeks of treatment
# Text: as §1
# A person had been suffering from subacute Lupus Erythematosus for 16 years. The subject was affected on large areas of the body with elements on the back, the breast and the face.
# The person has previously been treated with oral prednisolone, chlorochin, thalidomide and strong topical steroids, but all with limited or no effect.
# During an aggravation of the symptoms, the person initiated a twice daily treatment with the emulsion according to example 1.
# [3] = test system: Albino guinea pigs of Dunkin-Hartley strain; experiment: Skin sensitization test according to the Magnusson and Kligman method (O.E.C.D. Guideline No 406); assay type: in vivo, guinea pig
# Procedure: Assessment of sensitising properties of R-salbutamol. Test for skin sensitization is carried out according to the Magnusson and Kligman method (J. Invest. Dermatol. 1969. 52, 268-276) and in accordance with O.E.C.D. Guideline No 406 of Jul. 17, 1992, and the test method B.6 of the 96/54 E.E.C Directive. The test item (R-salbutamol as the sulphate salt) was diluted with distilled water to prepare a concentration of 0.5% (w/v). Albino guinea pigs of Dunkin-Hartley strain were exposed to the test item after an acclimatisation period of at least five days. The Maximum Non Necrotizing Concentration (M.N.N.C.) was determined by injecting by intradermal route the following concentrations of the test item 0.25%, 0.125%, 0.0625%, 0.0312% and 0.0156% diluted in physiological saline solution. Pre-Maximum Non Irritant Concentration (pre-M.N.I.C.) was determined by application of the test item under an occlusive dressing during 24 hours, at the following concentrations: 0.5%, 0.25%, 0.125% and 0.0625% diluted in physiological saline solution. Maximum Non Irritant Concentration (M.N.I.C.) was determined by initially establishing an induction phase by intradermal injection with a physiological saline solution and by topical application of distilled water followed by a 18-day rest phase. […]
Compound,improvement of inflamed lesions [1],remission of the cutaneous symptoms [2],"macroscopic cutaneous reactions attributable to allergy ([3]; challenge phase, after removal of 24 h occlusive dressing, induction with test item at 0.5%)",skin sensitization following topical application ([3]; topical application to skin)
"1-[[(1,1-Dimethylethyl)amino]methyl]-4-hydroxy-1,3-benzenedimethanol [Salbutamol]",significant improvement,complete remission,,
CC(C)(C)NC[C@H](O)c1ccc(O)c(CO)c1 [R-salbutamol],,,No macroscopic cutaneous reactions attributable to allergy,does not confer skin sensitization
